Like-named read-outs stand apart in the source and are kept apart here.
What was measured:
[1] = test system: patients undergoing elective primary total hip replacement; details: for Primary efficacy, composite endpoint (DVT, PE, death) incidence rate / Primary efficacy, composite endpoint, n of patients with event: 7-9 days
Description: This was a dose guiding study for the direct factor Xa inhibitor (I). Objective of the study was the assessment of safety, tolerability, and efficacy of (I) at different oral doses (bid and od) compared with subcutaneously administered enoxaparin 40 mg in the prevention of venous thromboembolism.
642 patients were enrolled in this study and the treatment duration was 7 to 9 days.
The main inclusion criteria for the study were: men ≧18 years of age and postmenopausal women undergoing elective primary total hip replacement.
This was a prospective, randomized, open-label, active comparator controlled, multi-center and multi-national trial designed as a proof-of-principle dose-escalating study in patients undergoing elective primary total hip replacement.
(I) was administered orally as rapid release tablets.
The criteria for evaluation were: • a) The primary efficacy endpoint was a composite endpoint of • Any deep vein thrombosis (DVT) (proximal and/or distal). • Non-fatal pulmonary embolism (PE). • Death from all causes. • The primary endpoint was evaluated 5-9 days after surgery.

[2] = at steady state in humans, healthy male subjects, multiple dose escalation; cited from earlier work
[3] = (I) 2.5 mg bid oral, PP population N = 63
[4] = (I) 5 mg bid oral, PP population N = 63
[5] = (I) 10 mg bid oral, PP population N = 55
[6] = (I) 20 mg bid oral, PP population N = 59
[7] = (I) 30 mg bid oral, PP population N = 46
[8] = (I) 30 mg od oral, PP population N = 73

SMILES: O=C(NC[C@H]1CN(c2ccc(N3CCOCC3=O)cc2)C(=O)O1)c1ccc(Cl)s1 [(I), 5-Chloro-N-({(5S)-2-oxo-3-[4-(3-oxo-4-morpholinyl)-phenyl]-1,3-oxazolidin-5-yl}-methyl)-2-thiophenecarboxamide]
- DVT rate ([1]; 30 mg (I) once daily for 7 to 9 days, 73 patients undergoing THR surgery): 12.3%
- Prevention of venous thromboembolism (VTE) ([1]; 7-9-day treatment, 2.5 to 30 mg bid, adults undergoing elective hip replacement, compared with enoxaparin): prevented venous thromboembolism (VTE)
- Primary efficacy, composite endpoint (DVT, PE, death) incidence rate [1, 3]: 22.2%
- Primary efficacy, composite endpoint, n of patients with event [1, 3]: 14
- Primary efficacy, composite endpoint (DVT, PE, death) incidence rate [1, 4]: 23.8%
- Primary efficacy, composite endpoint, n of patients with event [1, 4]: 15
- Primary efficacy, composite endpoint (DVT, PE, death) incidence rate [1, 5]: 20.0%
- Primary efficacy, composite endpoint, n of patients with event [1, 5]: 11
- Primary efficacy, composite endpoint (DVT, PE, death) incidence rate [1, 6]: 10.2%
- Primary efficacy, composite endpoint, n of patients with event [1, 6]: 6
- Primary efficacy, composite endpoint (DVT, PE, death) incidence rate [1, 7]: 17.4%
- Primary efficacy, composite endpoint, n of patients with event [1, 7]: 8
- Primary efficacy, composite endpoint (DVT, PE, death) incidence rate [1, 8]: 15.1%
- Primary efficacy, composite endpoint, n of patients with event [1, 8]: 11
- plasma concentration half life [2]: 4 to 6 h
